Reference: ChEMBL document CHEMBL3784936, “Classification of matching molecular series on the basis of SAR phenotypes and structural relationships” (Medchemcomm, 2016)

What was measured:
Oxytocin receptor = target: T1, Oxytocin receptor (Homo sapiens, UniProt P30559); assay: Inhibition of oxytocin receptor (unknown origin)
T1 sequence (P30559 whole entry): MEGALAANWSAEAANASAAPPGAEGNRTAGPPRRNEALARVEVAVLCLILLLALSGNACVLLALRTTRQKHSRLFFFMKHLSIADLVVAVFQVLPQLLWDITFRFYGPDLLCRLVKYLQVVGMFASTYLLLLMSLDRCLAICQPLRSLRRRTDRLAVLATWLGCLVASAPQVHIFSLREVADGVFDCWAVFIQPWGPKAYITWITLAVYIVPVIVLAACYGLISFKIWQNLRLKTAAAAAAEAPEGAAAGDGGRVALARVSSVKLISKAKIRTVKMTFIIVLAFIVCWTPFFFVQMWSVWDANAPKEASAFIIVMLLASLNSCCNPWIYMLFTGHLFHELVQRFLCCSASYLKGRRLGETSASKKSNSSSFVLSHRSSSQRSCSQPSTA

Adenosine receptor A3 = target: T2, Adenosine receptor A3 (Homo sapiens, UniProt P0DMS8); assay: Inhibition of adenosine A3 receptor (unknown origin)
T2 sequence (P0DMS8 whole entry): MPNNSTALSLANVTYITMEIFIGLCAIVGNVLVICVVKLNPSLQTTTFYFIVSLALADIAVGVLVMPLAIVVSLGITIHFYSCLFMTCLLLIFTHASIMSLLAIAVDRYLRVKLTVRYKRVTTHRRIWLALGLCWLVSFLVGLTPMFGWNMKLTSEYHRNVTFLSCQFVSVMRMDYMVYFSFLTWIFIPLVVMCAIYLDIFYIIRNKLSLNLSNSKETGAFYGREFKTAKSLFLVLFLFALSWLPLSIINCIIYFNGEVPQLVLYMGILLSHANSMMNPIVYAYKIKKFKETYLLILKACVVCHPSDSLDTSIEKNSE

| Ki (Oxytocin receptor) [nM] | Compound | Ki (Adenosine receptor A3) [nM] |
| --- | --- | --- |
| 17.8 | CCCCOc1ccc(S(=O)(=O)N(CC(=O)N/N=C2\C(=O)Nc3ccccc32)c2ccc(Cl)cc2)cc1 |  |
|  | Nc1ncnc2c1ncn2[C@@H]1O[C@H](C(=O)NC2CC2)[C@@H](O)[C@H]1O | 178 |
